How the values were obtained:
[1] = DPPH radical scavenging activity
Method: The radical scavenging effect of the compounds using the 1,1-diphenyl-2-picrylhydrazyl (DPPH) radical was estimated according to Zengin et al.[36]. The sample solution (1 ml) was added to 4 ml of a 0.004% solution of DPPH in methanol. The sample absorbance was recorded at 517 nm after 30 min incubation at room temperature in the dark.
(§1) The scavenging activity of the compounds on the ABTS radical cation [ABTS,2,2′-azino-bis(3-ethylbenzothiazoline)-6-sulphonic acid] was measured according to the method of Zengin et al.[37] with slight modification. Briefly, ABTS^+ was produced directly by reacting a 7 mM ABTS solution with 2.45 mM potassium persulphate and allowing the mixture to incubate for 12–16 h in the dark at room temperature. Prior to initiating the assay, the ABTS solution was diluted with methanol to an absorbance of 0.700 ± 0.02 at 734 nm. The sample solution (1 ml) was added to the ABTS^+ solution (2 ml) and mixed, and the sample absorbance was recorded at 734 nm after 30 min incubation at room temperature. The corresponding IC50 value, which is the effective concentration at which 50% of DPPH/ABTS radicals are scavenged, was calculated for each compound and trolox, as a reference drug.

[2] = Phosphomolybdenum assay (PhosphoMo), total antioxidant activity; conditions: concentration at which absorbance was 0.5
Method: The total antioxidant activity of the compounds was evaluated by phosphomolybdenum method according to Zengin et al.[35]. The sample solution (0.3 ml) was combined with 3 ml of reagent solution (0.6 M sulphuric acid, 28 mM sodium phosphate, and 4 mM ammonium molybdate) and the absorbance was recorded at 695 nm after 90 min incubation at 95 °C. The EC50, which is the effective concentration at which the absorbance was 0.5, was calculated for each compound and trolox, as a reference drug.

hMAO-B = biological target: T1, hMAO-B (Homo sapiens, UniProt P27338); assay: hMAO-B inhibition, IC50 determination (kynuramine fluorescence); type: biochemical; conditions: ratio (IC50 hMAO-A)/(IC50 hMAO-B)
T1 sequence (P27338 1-520): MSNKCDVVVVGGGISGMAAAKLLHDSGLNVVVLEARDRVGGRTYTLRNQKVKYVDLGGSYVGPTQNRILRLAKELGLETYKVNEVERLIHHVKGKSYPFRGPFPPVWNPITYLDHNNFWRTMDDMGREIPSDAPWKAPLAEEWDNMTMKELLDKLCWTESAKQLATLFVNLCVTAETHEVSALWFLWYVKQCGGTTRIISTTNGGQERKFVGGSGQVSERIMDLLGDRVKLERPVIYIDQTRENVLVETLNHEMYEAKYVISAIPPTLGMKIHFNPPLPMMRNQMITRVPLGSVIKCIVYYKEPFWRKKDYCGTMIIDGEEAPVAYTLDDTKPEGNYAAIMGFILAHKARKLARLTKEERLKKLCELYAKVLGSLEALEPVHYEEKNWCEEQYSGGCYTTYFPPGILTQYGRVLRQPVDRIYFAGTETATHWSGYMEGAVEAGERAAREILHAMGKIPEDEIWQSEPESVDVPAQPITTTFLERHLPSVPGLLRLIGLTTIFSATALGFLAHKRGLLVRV
Method: (§2) The procedure for the measurement of IC50 values for the inhibition of MAO has been reported. The enzyme reactions were prepared to a volume of […] in potassium phosphate buffer at pH 7.4 (100 mM, made isotonic with KCl) and contained kynuramine (50 μM) and the test inhibitors (0.003–100 µM). Stock solutions of the test inhibitors were prepared in DMSO and added to the reactions to yield 4% DMSO. The enzyme reactions were initiated with the addition of recombinant hMAO-A (0.0075 mg protein/mL) or hMAO-B (0.015 mg protein/mL) and incubated for 20 min at 37 °C. At endpoint, the reactions were terminated with 80 µL sodium hydroxide (2N) and the fluorescence of 4-hydroxyquinoline, the oxidation product of kynuramine, was measured (λex = 310; λem = 400 nm)[33]. 4-Hydroxyquinoline was quantified with a calibration curve (0.047–1.56 μM) and the rate of 4-hydroxyquinoline formation was fitted to the one site competition model of the Prism 5 software package (GraphPad). From the resulting sigmoidal plots, the IC50 values were estimated. All enzyme reactions were carried out in triplicate and IC50 values are given as the mean ± standard deviation (SD).

[3] = Cupric ion reducing activity (CUPRAC)
Method: The cupric ion reducing activity (CUPRAC) was determined according to the method of Zengin et al.[38]. The sample solution (0.5 ml) was added to a premixed reaction mixture containing CuCl2 (1 ml, 10 mM), neocuproine (1 ml, 7.5 mM), and NH4Ac buffer (1 ml, 1 M, pH 7.0). Similarly, a blank was prepared by adding the sample solution (0.5 ml) to a premixed reaction mixture (3 ml) without CuCl2. The absorbances of the sample and blank were subsequently recorded at 450 nm after 30 min incubation at room temperature. The absorbance of the blank was subtracted from that of the sample.
(§3) The FRAP (ferric reducing antioxidant power) assay was carried out as described by Zengin et al.[38]. The sample solution (0.1 ml) was added to the premixed FRAP reagent (2 ml) containing acetate buffer (0.3 M, pH 3.6), 2,4,6-tris(2-pyridyl)-s-triazine (10 mM) in 40 mM HCl, and ferric chloride (20 mM) in a ratio of 10/1/1 (v/v/v). The absorbance of the sample was subsequently recorded at 593 nm after 30 min incubation at room temperature. Both results were expressed as EC50 values, using trolox as a reference drug.

[4] = Metal chelating activity on ferrous ions; conditions: ferrozine
Method: Metal chelating activity on ferrous ions was evaluated by the method previously described. Briefly, the sample solution (2 ml) was added to FeCl2 solution (0.05 ml, 2 mM). The reaction was initiated by the addition of 5 mM ferrozine (0.2 ml). Similarly, a blank was prepared by adding the sample solution (2 ml) to FeCl2 solution (0.05 ml, 2 mM) and water (0.2 ml) without ferrozine. Then, the sample and blank absorbance were recorded at 562 nm after incubation for 10 min at room temperature. The absorbance of the blank was subtracted from that of the sample. EDTA was used as a positive control and this property was expressed as IC50 value for each compound.

[5] = FRAP (ferric reducing antioxidant power) assay
Method: as §3

[6] = ABTS radical cation scavenging activity
Method: as §1

hMAO-A = biological target: T2, hMAO-A (Homo sapiens, UniProt P21397); assay: hMAO-A inhibition, IC50 determination (kynuramine fluorescence); type: biochemical
T2 sequence (P21397 1-527): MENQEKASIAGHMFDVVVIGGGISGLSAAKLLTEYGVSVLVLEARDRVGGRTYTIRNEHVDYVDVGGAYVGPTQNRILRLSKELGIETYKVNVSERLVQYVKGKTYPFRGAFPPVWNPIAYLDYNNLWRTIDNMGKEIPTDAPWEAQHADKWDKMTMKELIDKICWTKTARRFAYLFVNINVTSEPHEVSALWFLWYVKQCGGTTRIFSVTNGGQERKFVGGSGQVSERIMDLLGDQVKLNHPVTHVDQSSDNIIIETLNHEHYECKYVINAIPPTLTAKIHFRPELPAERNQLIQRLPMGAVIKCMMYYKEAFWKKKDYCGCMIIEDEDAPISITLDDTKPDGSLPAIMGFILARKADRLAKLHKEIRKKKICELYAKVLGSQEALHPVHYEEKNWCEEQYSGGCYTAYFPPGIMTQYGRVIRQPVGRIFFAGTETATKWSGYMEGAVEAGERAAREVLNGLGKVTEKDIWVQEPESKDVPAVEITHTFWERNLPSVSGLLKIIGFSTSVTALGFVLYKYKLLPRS
Method: as §2

O=[N+]([O-])c1cccc(-c2csc(NN=Cc3cccs3)n2)c1 [Compound 3, 1-(4-(3-Nitrophenyl)thiazol-2-yl)-2-(thiophen-2-ylmethylene)hydrazine]
IC50 [1]: 1.19 ± 0.01 mM
EC50 [2]: 1.84 ± 0.18 mM
Selectivity index (SI) for the MAO-B isoform (hMAO-B): 8412
EC50 [3]: 590 ± 10 µM
IC50 [4]: > 5 mM
EC50 [5]: 410 ± 20 µM
IC50 [6]: 1.05 ± 0.01 mM
IC50 (hMAO-A): 57.2 µM
